Results on one molecule are retold here after patent US20130053435A1, “Methods of Treating Alcohol Intoxication, Alcohol Use Disorders and Alcohol Abuse Which Comprises the Administration of Dihydromyricetin” (priority 2011, published 2013).

Common to all, as to experiment: Whole-cell patch-clamp, DGCs in hippocampal slices, acute drug application
Holding throughout (format): cell-based, rat
(Patch clamp records ionic current or voltage across a cell membrane.)

Assay [1] relates to T1, GABAARs.
T1 construct: other: in the presence of 60 mM EtOH, rat hippocampal; shift of the GABA concentration-response curve
The following applies: in the presence of 60 mM EtOH, rat hippocampal slices. As for the experimental part: (§1) Transverse slices (400 μm) of dorsal hippocampus were obtained with a Vibratome (VT 100, Technical Products International, St. Louis, Mo.) and standard techniques known in the art. Slices were continuously perfused with artificial cerebrospinal fluid (ACSF).
(§2) Signals were recorded in voltage-clamp mode with a […] amplifier (Molecular Devices, Sunnyvale, Calif.). Whole cell access resistances were in the range of <25 MΩ before electrical compensation by about 70%. During voltage-clamp recordings, access resistance was monitored by measuring the size of the capacitative transient in response to a 5 mV step command and the data were abandoned if changes >20% were encountered. At least 10 min was allowed for equilibration of the pipette solution with the intracellular milieu before commencing mIPSC recordings.
(§3) Data were analyzed using the Clampfit (Version 9.0, Molecular Devices) and the MiniAnalysis Program (versions 6.0.7, Synaptosoft, Decatur, Ga.).
(§4) The MiniAnalysis program (Synaptosoft, Decatur, Ga.) was used to analyze mIPSCs. Itonic is the averaged baseline currents of a given recording period. Itonic amplitude was calculated as the difference between the holding currents measured before and after picrotoxin (100 μM) or bicuculline (10 μM). […] Briefly, the recordings were low-pass filtered off-line (Clampfit software) at 2 kHz. The mIPSCs were detected (Mini Analysis Program, version 6.0.7) with threshold criteria of 8 pA amplitude and 20 pA*ms charge transfer. The frequency of mIPSCs was determined from all automatically detected events in a given 100 s recording period. For kinetic analysis, only single event mIPSCs with a stable baseline, sharp rising phase (10 to 90% rise time), and exponential decay were chosen during visual inspection of the recording trace. Double and multiple peak mIPSCs were excluded. At least 100 individual mIPSC events were recorded under each experimental condition. The mIPSC kinetics was obtained from analysis of the averaged chosen single events aligned with half rise time in each cell. Decay time constants were obtained by fitting a double exponential to the falling phase of the averaged mIPSCs. Itonic magnitudes were obtained from the averaged baseline current of a given recording period. Itonic amplitude was calculated as the difference between the holding currents measured before and after the application of picrotoxin (50 μM) or bicuculline (10 μM). […] The investigator performing the recordings and mIPSC analysis was blind to the treatment (vehicle, EtOH, E+D, or D) that the rats received.
(§5) As performed previously, whole-cell patch-clamp recordings in dentate gyms granule cells (DGCs) from hippocampal slices in vitro were conducted.

The test system of assay [2] is T2, GABAARs.
T2 construct: DHM-enhanced Itonic; EC50 on GABAAR-mediated Itonic; other: control (vehicle) cultured neurons, DIV14; other: cultured neurons with EtOH exposure/withdrawal (60 mM, 30 min, 24 hr); EtOH-potentiated Itonic; GABAAR-mediated Ito
As for the experimental part: as §1, §2, §3, §4, §5

Assay [3] has as its system T3, GABAARs.
T3 construct: DHM-enhanced mIPSCs; other: control (vehicle) cultured neurons, DIV14; other: cultured neurons with EtOH exposure/withdrawal (60 mM, 30 min, 24 hr); EtOH-potentiated mIPSCs; effect on post-synaptic currents (mIPSCs); other: comparative experiments, rat hippocampal slices
As for the experimental part:
as §1, §2, §3, §4, §5

[4] abbreviates: DHM 0.3 μM, DGCs from naïve rats.
Where [5] appears, read: DHM 1 μM, DGCs in hippocampal slices.
Setting [6] is: comparative experiments, rat hippocampal slices.

On to `O=C1c2c(O)cc(O)cc2O[C@H](c2cc(O)c(O)c(O)c2)[C@H]1O` [DHM, (2R,3R)-3,5,7-trihydroxy-2-(3,4,5-trihydroxyphenyl)-2,3-dihydrochromen-4-one], for which, in the assay with GABAARs [1], the “block of EtOH potentiation of GABAAR-mediated Itonic and mIPSCs” value was “dose-dependently blocks”. Also, in the assay with GABAARs [2] (setting [4]), the “GABAAR-mediated Itonic” value is 29.0±6.7 pA. Besides, the Itonic in the assay on GABAARs [2] (setting [5]) was 44.0±4.1 pA. The “Itonic in presence of DHM plus EtOH” value with GABAARs [2] (DHM (0.3 μM) followed by co-application of 60 mM EtOH) turned out to be 44.4±3.6 pA. Further, the “Itonic in presence of DHM before EtOH” value with GABAARs [2] (DHM (0.3 μM, FIG. 3 panel c) before EtOH) turned out to be 41.1±2.2 pA. Further, the “EtOH-potentiated Itonic” value in the assay with GABAARs [2] (EtOH 60 mM + DHM 3 μM) is 21.0±0.9 pA; in the assay with GABAARs [2] (EtOH 60 mM followed by co-application of 1 μM DHM), 32.0±2.0 pA. Moreover, in the assay with GABAARs [2] (setting [6]), the “effect on extrasynaptic GABAAR-mediated tonic current (Itonic)” value is recorded as “potentiates”. Besides, in the assay with GABAARs [3] (setting [4]), the “mIPSC total charge transfer (area)” value was 615±22 fC. The same molecule returned a mIPSC area with GABAARs [3] (setting [5]) of 0.72±0.03 nC. The “EtOH-potentiated mIPSCs” value with GABAARs [3] (EtOH 60 mM + DHM 3 μM) was determined as 0.70±0.02 nC. In addition, the “effect on post-synaptic currents (mIPSCs)” value with GABAARs [3] (setting [6]) was “potentiates”.
